{
  "source": "paper PMC12155760",
  "about": "“A cobalamin-dependent pathway of choline demethylation from the human gut acetogen Eubacterium limosum [drawing 1]” (The Journal of Biological Chemistry, 2025)",
  "key": {"[1]": {"test_system": "MthB", "test": "UV/Vis, methyl-Co(III)-MthC formation at […] nm", "type": "biochemical, Eubacterium limosum", "settings": "co-substrate 30 μM Co(I)-MthC, RamQ, Ti(III)citrate, 2 mM ATP, MOPS pH 7.2, 37 °C; read-out: apparent KM"}, "[2]": {"target": "T1, MthA (Eubacterium limosum, UniProt A0AAC9QR60)", "T1 construct": "gene B2M23_01055", "T1 sequence (A0AAC9QR60 1-264)": "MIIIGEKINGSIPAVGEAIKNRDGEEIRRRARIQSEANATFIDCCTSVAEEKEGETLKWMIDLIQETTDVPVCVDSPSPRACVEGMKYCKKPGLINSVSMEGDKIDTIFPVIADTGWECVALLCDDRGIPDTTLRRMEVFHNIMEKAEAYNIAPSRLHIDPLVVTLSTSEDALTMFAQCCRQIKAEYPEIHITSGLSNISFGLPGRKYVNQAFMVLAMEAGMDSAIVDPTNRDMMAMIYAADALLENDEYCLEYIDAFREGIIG", "test": "HPLC, methyl-THF formation", "type": "biochemical", "settings": "5 mM THF, MthB, MthC, RamQ, Ti(III)citrate, ATP, 50 mM phosphocholine, MOPS pH 7.0, 24 °C"}, "[3]": {"substrate": "C[N+](C)(C)CCO", "test": "purified protein", "type": "biochemical, Eubacterium limosum", "settings": "5 mM ATP, 10 mM MgCl2, 100 mM KCl, glycine-NaOH pH 9.0"}},
  "data": [
    {"molecule": "C[N+](C)(C)CCOP(=O)([O-])O", "note": "[phosphocholine]", "values": [
      {"measurement": "Km", "setting": "[1]", "result": "11.3 ± 1.9", "unit": "mM"}
    ]},
    {"molecule": "Nc1nc2c(c(=O)[nH]1)N[C@@H](CNc1ccc(C(=O)N[C@@H](CCC(=O)O)C(=O)O)cc1)CN2", "note": "[THF]", "values": [
      {"measurement": "HPLC, methyl-THF formation", "setting": "[2]", "result": "the further addition of MthA allowed the methylation of THF with phosphocholine as assayed by HPLC"}
    ]},
    {"molecule": "MthK (Eubacterium limosum) (protein) MVDGKFIEMQTEIMKNYPPANAQALLNIFNAASGMQEYLDNVLAKTRESYLYTQLRDLVENYYDIGTLLDVYQIFGGYINTSFGIYTEKNGKKQTWFVRKYKNGKELESLLFEHSMLKYAKENGFSYGAVPIPAKDGKTYHEVTETTTEGETKSYFAVFNFVGGKAHYDWIPNWANAGVADLTVISAAKSLAEFHNSTRGFDPEGRHGDNIMDNEDITVNEIIRKFPKTLKEYRKSYAEAGFENVYTEYYDANYDYFAKMCERSVIPDVDYDTMVSNVCHCDFHPGNFKYLDNGEVCGSFDYDMAKIDSRLFELGLAIHYCFSSWLSDTNGIINLDRASLFVKTYDEELHKAGGIEPLTDIEKKYLYEVTVQGALYDLGWCSSACVYDSTLDPYEYLFYTQHFVACLKWLEANEAAFRKAFD", "values": [
      {"measurement": "Km", "setting": "[3]", "result": "2.8 ± 0.2", "unit": "µM"},
      {"measurement": "kcat", "setting": "[3]", "result": "13.8 ± 0.28", "unit": "s⁻¹"}
    ]}
  ]
}
